Structures can show the parent of a compound that is named as a salt.
Key:
[1] = In vivo pharmacokinetic study in beagle dogs; conditions: male, dog, plasma, po, gavage, 10 mg/kg
Protocol: With beagle dogs as test animals, the drug concentration in the plasma of beagle dogs at different time points after oral administration of the compound of the present disclosure was determined by using LC/MS/MS. The pharmacokinetic behavior of the compound of the present disclosure in beagle dogs was studied to evaluate its pharmacokinetic characteristics.
Experimental animals: 2 healthy male beagle dogs aged 8 to 36 months per group
Drug preparation: A certain amount of drug was weighed and prepared into a 2 mg/mL colorless clear solution with normal saline.
Administration: Beagle dogs were fasted overnight and administered with the drug by gavage. The dosage of reference 1 and the compound of Example 6 was both 10 mg/kg.
Procedure: Beagle dogs were administered by gavage with the compound of the present disclosure. Approximately 0.6 mL of blood was collected by peripheral venipuncture at 0.25, 0.5, 1, 2, 4, 6, 8, and 24 h after administration. The blood was placed in a tube containing EDTA-K2 and centrifuged at 2000 rpm for 10 min at approximately 4°C to separate the plasma, which was then stored at -75°C.
Determination of the content of the test compound in beagle dog plasma at different blood collection time points: 33 µL of beagle dog plasma (30 µL plasma and 3 µL blank) collected at each time point after administration was added to 18 µL of 6% perchloric acid solution, vortexed for 30 s, and centrifuged at 3900 rpm at 4°C for 15 min. Then, 200 µL of alkaline (pH 10-11 as adjusted with ammonia water) acetonitrile solution containing internal standard dexamethasone was added to precipitate the protein. The mixture was vortexed for 30 s and centrifuged at 3900 rpm at 4°C for 15 min. The supernatant of the plasma sample was taken, diluted 3-fold with water, and 8 µL was taken for LC/MS/MS analysis.
After the blood drug concentration was determined by LC/MS/MS analysis, the pharmacokinetic parameters were calculated using WinNonlin 6.1 software and the non-compartmental model method. Table 1 Pharmacokinetic parameters of the compounds of the present disclosure in beagle dogs

[2] = Long-term accelerated stability test (Test Example 4), sealed in aluminum foil bag (nitrogen-filled); assay type: physicochemical
[3] = Long-term accelerated stability test (Test Example 3), sealed in aluminum foil bags; assay type: physicochemical; conditions: for physicochemical stability: 25°C/60%RH and 40°C/75%RH for 6 months
[4] = DVS hygroscopicity test (dynamic moisture sorption); assay type: physicochemical; conditions: at 80% RH
Protocol: DVS stands for dynamic moisture sorption: using the Surface Measurement Systems instrument, humidity started at 50% and the humidity range investigated was 0%-95% with a step of 10%. The judgment standard is that the mass change of each gradient dM/dT is ≤ 0.002%, TMAX is 360 min, and there are two cycles.

Cl.Cl.Cl.Cl.O=C(O)[C@@H](Cc1cccc(CN(CCOc2cccc(C[C@H](C(=O)O)[C@H]3CCNC3)c2)Cc2cccc(C[C@H](C(=O)O)[C@H]3CCNC3)c2)c1)[C@H]1CCNC1 [Compound A hydrochloride, (2S)-3-(3-{[(2-{3-[(2S)-2-carboxyl-2-[(3R)-pyrrolidin-3-yl]ethyl]phenoxy}ethyl)({3-[(2S)-2-carboxyl-2-[(3R)-pyrrolidin-3-yl]ethyl]phenyl}methyl)amino]methyl}phenyl)-2-[(3R)-pyrrolidin-3-yl]propionic acid tetrahydrochloride]
AUC ([1]; read-out: Area under curve AUC): 28600 ng·h/mL | half-life ([1]; read-out: Half life T1/2 (converted)): 18.3 h | Cmax ([1]; read-out: Maximum blood concentration Cmax): 2470 ng/mL

O=C(O)[C@@H](Cc1cccc(CN(CCOc2cccc(C[C@H](C(=O)O)[C@H]3CCNC3)c2)Cc2cccc(C[C@H](C(=O)O)[C@H]3CCNC3)c2)c1)[C@H]1CCNC1 [free crystal form C, (2S)-3-(3-{[(2-{3-[(2S)-2-carboxyl-2-[(3R)-pyrrolidin-3-yl]ethyl]phenoxy}ethyl)({3-[(2S)-2-carboxyl-2-[(3R)-pyrrolidin-3-yl]ethyl]phenyl}methyl)amino]methyl}phenyl)-2-[(3R)-pyrrolidin-3-yl]propionic acid]
Crystal form ([2]; 0 day): Crystal form C | Purity (%) ([2]; 0 day): 99.8% | Crystal form ([2]; 25°C-60%RH, 1 month): Unchanged | Purity (%) ([2]; 25°C-60%RH, 1 month): 99.8% | Crystal form ([2]; 25°C-60%RH, 3 months): Unchanged | Purity (%) ([2]; 25°C-60%RH, 3 months): 99.7% | Crystal form ([2]; 25°C-60%RH, 6 months): Unchanged | Purity (%) ([2]; 25°C-60%RH, 6 months): 99.7% | Crystal form ([2]; 25°C-60%RH, 7 days): Unchanged | Purity (%) ([2]; 25°C-60%RH, 7 days): 99.8% | Crystal form ([2]; 25°C-60%RH, 14 days): Unchanged | Purity (%) ([2]; 25°C-60%RH, 14 days): 99.8% | physicochemical stability ([2]; 25°C/60%RH and 40°C/75%RH for 6 months): good | Crystal form ([2]; 40°C-75%RH, 1 month): Unchanged | Purity (%) ([2]; 40°C-75%RH, 1 month): 99.8% | Crystal form ([2]; 40°C-75%RH, 3 months): Unchanged | Purity (%) ([2]; 40°C-75%RH, 3 months): 99.3% | Crystal form ([2]; 40°C-75%RH, 6 months): Unchanged | Purity (%) ([2]; 40°C-75%RH, 6 months): 99.3% | Crystal form ([2]; 40°C-75%RH, 7 days): Unchanged | Purity (%) ([2]; 40°C-75%RH, 7 days): 99.8% | Crystal form ([2]; 40°C-75%RH, 14 days): Unchanged | Purity (%) ([2]; 40°C-75%RH, 14 days): 99.8%

O=C(O)[C@@H](Cc1cccc(CN(CCOc2cccc(C[C@H](C(=O)O)[C@H]3CCNC3)c2)Cc2cccc(C[C@H](C(=O)O)[C@H]3CCNC3)c2)c1)[C@H]1CCNC1 [hydrochloride (1:1) amorphous form, (2S)-3-(3-{[(2-{3-[(2S)-2-carboxyl-2-[(3R)-pyrrolidin-3-yl]ethyl]phenoxy}ethyl)({3-[(2S)-2-carboxyl-2-[(3R)-pyrrolidin-3-yl]ethyl]phenyl}methyl)amino]methyl}phenyl)-2-[(3R)-pyrrolidin-3-yl]propionic acid]
Crystal form ([3]; 0 day): Amorphous form | Purity (%) ([3]; 0 day): 98.8% | Crystal form ([3]; 25°C-60%RH, 1 month): Crystal form a | Purity (%) ([3]; 25°C-60%RH, 1 month): 98.7% | Crystal form ([3]; 25°C-60%RH, 2 months): Crystal form a | Purity (%) ([3]; 25°C-60%RH, 2 months): 98.6% | Crystal form ([3]; 25°C-60%RH, 3 months): Crystal form a | Purity (%) ([3]; 25°C-60%RH, 3 months): 98.2% | Crystal form ([3]; 25°C-60%RH, 7 days): Unchanged | Purity (%) ([3]; 25°C-60%RH, 7 days): 98.8% | Crystal form ([3]; 25°C-60%RH, 14 days): Unchanged | Purity (%) ([3]; 25°C-60%RH, 14 days): 98.8% | physicochemical stability [3]: slightly less stable | Crystal form ([3]; 40°C-75%RH, 1 month): Crystal form a | Purity (%) ([3]; 40°C-75%RH, 1 month): 97.6% | Crystal form ([3]; 40°C-75%RH, 2 months): Crystal form a | Purity (%) ([3]; 40°C-75%RH, 2 months): 95.6% | Crystal form ([3]; 40°C-75%RH, 3 months): Crystal form a | Purity (%) ([3]; 40°C-75%RH, 3 months): 95.3% | Crystal form ([3]; 40°C-75%RH, 7 days): Crystal form a | Purity (%) ([3]; 40°C-75%RH, 7 days): 98.3% | Crystal form ([3]; 40°C-75%RH, 14 days): Crystal form a | Purity (%) ([3]; 40°C-75%RH, 14 days): 98.1%

O=C(O)[C@@H](Cc1cccc(CN(CCOc2cccc(C[C@H](C(=O)O)[C@H]3CCNC3)c2)Cc2cccc(C[C@H](C(=O)O)[C@H]3CCNC3)c2)c1)[C@H]1CCNC1 [hydrochloride (1:1) crystal form a, (2S)-3-(3-{[(2-{3-[(2S)-2-carboxyl-2-[(3R)-pyrrolidin-3-yl]ethyl]phenoxy}ethyl)({3-[(2S)-2-carboxyl-2-[(3R)-pyrrolidin-3-yl]ethyl]phenyl}methyl)amino]methyl}phenyl)-2-[(3R)-pyrrolidin-3-yl]propionic acid]
DVS hygroscopicity weight gain ([4]; listed as hydrochloride crystal form a): 30% | Crystal form ([3]; 0 day): Hydrochloride crystal form a | Purity (%) ([3]; 0 day): 99.9% | Crystal form ([3]; 25°C-60%RH, 1 month): Unchanged | Purity (%) ([3]; 25°C-60%RH, 1 month): 99.9% | Crystal form ([3]; 25°C-60%RH, 3 months): Deliquescent | Purity (%) ([3]; 25°C-60%RH, 3 months): 99.7% | Crystal form ([3]; 25°C-60%RH, 6 months): Deliquescent | Purity (%) ([3]; 25°C-60%RH, 6 months): 98.5% | Crystal form ([3]; 25°C-60%RH, 7 days): Unchanged | Purity (%) ([3]; 25°C-60%RH, 7 days): 99.9% | Crystal form ([3]; 25°C-60%RH, 14 days): Unchanged | Purity (%) ([3]; 25°C-60%RH, 14 days): 99.9% | physicochemical stability [3]: slightly less stable | Crystal form ([3]; 40°C-75%RH, 1 month): Deliquescent | Purity (%) ([3]; 40°C-75%RH, 1 month): 97.7% | Crystal form ([3]; 40°C-75%RH, 3 months): Deliquescent | Purity (%) ([3]; 40°C-75%RH, 3 months): 95.2% | Crystal form ([3]; 40°C-75%RH, 6 months): Deliquescent | Purity (%) ([3]; 40°C-75%RH, 6 months): 94.8% | Crystal form ([3]; 40°C-75%RH, 7 days): Unchanged | Purity (%) ([3]; 40°C-75%RH, 7 days): 99.8% | Crystal form ([3]; 40°C-75%RH, 14 days): Unchanged | Purity (%) ([3]; 40°C-75%RH, 14 days): 98.8%

O=C(O)[C@@H](Cc1cccc(CN(CCOc2cccc(C[C@H](C(=O)O)[C@H]3CCNC3)c2)Cc2cccc(C[C@H](C(=O)O)[C@H]3CCNC3)c2)c1)[C@H]1CCNC1 [hydrochloride (1:1) crystal form e, (2S)-3-(3-{[(2-{3-[(2S)-2-carboxyl-2-[(3R)-pyrrolidin-3-yl]ethyl]phenoxy}ethyl)({3-[(2S)-2-carboxyl-2-[(3R)-pyrrolidin-3-yl]ethyl]phenyl}methyl)amino]methyl}phenyl)-2-[(3R)-pyrrolidin-3-yl]propionic acid]
DVS hygroscopicity weight gain ([4]; listed as hydrochloride crystal form e): 18% | Crystal form ([3]; 0 day): Hydrochloride crystal form e | Purity (%) ([3]; 0 day): 99.9% | Crystal form ([3]; 25°C-60%RH, 1 month): Unchanged | Purity (%) ([3]; 25°C-60%RH, 1 month): 99.9% | Crystal form ([3]; 25°C-60%RH, 3 months): Unchanged | Purity (%) ([3]; 25°C-60%RH, 3 months): 99.9% | Crystal form ([3]; 25°C-60%RH, 6 months): Unchanged | Purity (%) ([3]; 25°C-60%RH, 6 months): 99.9% | Crystal form ([3]; 25°C-60%RH, 7 days): Unchanged | Purity (%) ([3]; 25°C-60%RH, 7 days): 99.9% | Crystal form ([3]; 25°C-60%RH, 14 days): Unchanged | Purity (%) ([3]; 25°C-60%RH, 14 days): 99.9% | physicochemical stability [3]: good | Crystal form ([3]; 40°C-75%RH, 1 month): Unchanged | Purity (%) ([3]; 40°C-75%RH, 1 month): 99.9% | Crystal form ([3]; 40°C-75%RH, 3 months): Unchanged | Purity (%) ([3]; 40°C-75%RH, 3 months): 99.9% | Crystal form ([3]; 40°C-75%RH, 6 months): Unchanged | Purity (%) ([3]; 40°C-75%RH, 6 months): 99.9% | Crystal form ([3]; 40°C-75%RH, 7 days): Unchanged | Purity (%) ([3]; 40°C-75%RH, 7 days): 99.9% | Crystal form ([3]; 40°C-75%RH, 14 days): Unchanged | Purity (%) ([3]; 40°C-75%RH, 14 days): 99.9%

Cl.Cl.Cl.Cl.O=C(O)[C@@H](Cc1cccc(CN(CCOc2cccc(C[C@H](C(=O)O)[C@H]3CCNC3)c2)Cc2cccc(C[C@H](C(=O)O)[C@H]3CCNC3)c2)c1)[C@H]1CCNC1 [hydrochloride (1:4) amorphous form, (2S)-3-(3-{[(2-{3-[(2S)-2-carboxyl-2-[(3R)-pyrrolidin-3-yl]ethyl]phenoxy}ethyl)({3-[(2S)-2-carboxyl-2-[(3R)-pyrrolidin-3-yl]ethyl]phenyl}methyl)amino]methyl}phenyl)-2-[(3R)-pyrrolidin-3-yl]propionic acid tetrahydrochloride]
Crystal form ([3]; 0 day): Amorphous form | Purity (%) ([3]; 0 day): 99.8% | Crystal form ([3]; 25°C-60%RH, 1 month): Unchanged | Purity (%) ([3]; 25°C-60%RH, 1 month): 99.8% | Crystal form ([3]; 25°C-60%RH, 2 months): Deliquescent | Purity (%) ([3]; 25°C-60%RH, 2 months): 99.8% | Crystal form ([3]; 25°C-60%RH, 3 months): Deliquescent | Purity (%) ([3]; 25°C-60%RH, 3 months): 99.8% | Crystal form ([3]; 25°C-60%RH, 6 months): Deliquescent | Purity (%) ([3]; 25°C-60%RH, 6 months): 99.8% | Crystal form ([3]; 25°C-60%RH, 7 days): Unchanged | Purity (%) ([3]; 25°C-60%RH, 7 days): 99.8% | Crystal form ([3]; 25°C-60%RH, 14 days): Unchanged | Purity (%) ([3]; 25°C-60%RH, 14 days): 99.8% | physicochemical stability [3]: slightly less stable | Crystal form ([3]; 40°C-75%RH, 1 month): Deliquescent | Purity (%) ([3]; 40°C-75%RH, 1 month): 99.8% | Crystal form ([3]; 40°C-75%RH, 2 months): Deliquescent | Purity (%) ([3]; 40°C-75%RH, 2 months): 99.8% | Crystal form ([3]; 40°C-75%RH, 3 months): Deliquescent | Purity (%) ([3]; 40°C-75%RH, 3 months): 99.8% | Crystal form ([3]; 40°C-75%RH, 6 months): Deliquescent | Purity (%) ([3]; 40°C-75%RH, 6 months): 99.8% | Crystal form ([3]; 40°C-75%RH, 7 days): Unchanged | Purity (%) ([3]; 40°C-75%RH, 7 days): 99.8% | Crystal form ([3]; 40°C-75%RH, 14 days): Unchanged | Purity (%) ([3]; 40°C-75%RH, 14 days): 99.8%

Reference: patent EP4711355A1, “CRYSTAL FORM OF LIPOPROTEIN COMPOUND AND PREPARATION METHOD THEREFOR” (Jiangsu Hengrui Pharmaceuticals Co., Ltd., priority 2023, dated 2024)
